Some results are limits rather than exact numbers.

Data set [1] concerns Leishmania braziliensis stationary promastigotes. Description: In vitro antileishmanial activity against promastigotes (MTT). It is filed as cell-based. To be noted: Leishmania braziliensis; 48 h at 24 °C, MTT, mean ± standard deviation. The procedure: The study was approved by the Committee for the Ethical Handling of Research Animals from the Federal University of Minas Gerais (protocol number 085/2017). Leishmania braziliensis (MHOM/BR/1975/M2904) promastigotes were grown at 24 °C in Schneider’s medium (Sigma-Aldrich, USA) supplemented with 20% heat-inactivated fetal bovine serum (FBS, Sigma-Aldrich, USA) and 20 mmol/L L-glutamine at pH 7.4 [65].
(§1) The in vitro antileishmanial activity was evaluated by incubating the promastigotes or axenic amastigotes (1 × 10^6 cells/well) with the 24 synthetic derivatives (Compounds 5–28; 0 to 600 µg/mL) in 96-well culture plates (Nunc, Nunclon, Roskilde, Denmark) for 48 h at 24 °C. Due to the difficulty in obtaining a high concentration of murine macrophages, the cytotoxicity experiment was evaluated by incubating such cells (5 × 10^5 per mL) with Compound 28 (0 to 600 µg/mL), which presented the best antileishmanial activity, for 48 h at 37 °C in a 5% CO2 environment. AmpB (0 to 10 µg/mL; Sigma-Aldrich, St. Louis, MO, USA) was used as a positive control in both experiments. The cell viability was assessed using the 3-(4.5-dimethylthiazol-2-yl)-2.5-diphenyl tetrazolium bromide (MTT, Sigma-Aldrich, St. Louis, MO, USA) method. The optical density (OD) values were read using a microplate spectrophotometer (Molecular Devices, Spectra Max Plus, San Jose, CA, USA) at 570 nm. Results were entered into Microsoft Excel (version 10.0) spreadsheets, and the 50% Leishmania and macrophage inhibitory concentrations (IC50 and CC50, respectively) were calculated by applying a sigmoidal regression of the dose–response curve. The SI was calculated by dividing the CC50 with the respective IC50 values.

For data set [2], the system named is Leishmania braziliensis axenic amastigotes. Description: In vitro antileishmanial activity against axenic amastigotes (MTT). The format is cell-based. To be noted: Leishmania braziliensis, 48 h, 48 h at 24 °C, MTT, mean ± standard deviation. The procedure: To obtain the axenic amastigotes, 1 × 10^9 stationary promastigotes were washed three times in sterile phosphate-buffered saline (PBS) and incubated in 5 mL FBS for 48 h at 37 °C. Parasites were washed with cold PBS, and their morphology was evaluated with an optical microscope after Giemsa staining as previously described.
as §1

The term IC50 denotes the concentration at which inhibition is half-maximal. The term melting point denotes the temperature, or range, at which the solid turns liquid. Take `COc1ccc(/C=C/C(=O)NCc2cn(Cc3ccc(C)cc3)nn2)cc1` [Compound 5, N-((1-(4-methylbenzyl)-1H-1,2,3-triazol-4-yl)methyl) (4-methoxy) Cinnamide]: the melting point lay in the range of 166 to 167.2 °C. The IC50 in data set [1] is over 600 mg/L. Besides, in data set [2], the IC50 is over 600 mg/L.

`COc1ccc(/C=C/C(=O)NCc2cn(Cc3ccc(C(C)C)cc3)nn2)cc1` [Compound 6, N-((1-(4-isopropylbenzyl)-1H-1,2,3-triazol-4-yl)methyl) (4-methoxy) cinnamide] yielded a melting point of 187.4 to 188.3 °C. In data set [1], this compound showed an IC50 of over 600 mg/L. Further, the IC50 in data set [2] is over 600 mg/L.

For `COc1ccc(/C=C/C(=O)NCc2cn(Cc3ccc(F)cc3)nn2)cc1` [Compound 7, N-((1-(4-fluorobenzyl)-1H-1,2,3-triazol-4-yl)methyl) (4-methoxy) cinnamide], the melting point is 178.6 to 180 °C. Also, in data set [1], the IC50 was over 600 mg/L. This compound also displayed an IC50 in data set [2] of over 600 mg/L.

As for `COc1ccc(/C=C/C(=O)NCc2cn(Cc3ccc(Cl)cc3)nn2)cc1` [Compound 8, N-((1-(4-chlorobenzyl)-1H-1,2,3-triazol-4-yl)methyl) (4-methoxy) cinnamide], the melting point is 185.7 to 186.5 °C. In data set [1], this compound had a half-maximal inhibitory concentration (IC50) of over 600 mg/L. Further, the IC50 in data set [2] was over 600 mg/L.

Regarding `COc1ccc(/C=C/C(=O)NCc2cn(Cc3ccc(Br)cc3)nn2)cc1` [Compound 9, N-((1-(4-bromobenzyl)-1H-1,2,3-triazol-4-yl)methyl) (4-methoxy) cinnamide], the melting point fell in the range of 193.1 to 194.7 °C. In data set [1], this compound gave an IC50 of over 600 mg/L. In data set [2], the IC50 is over 600 mg/L.

Compound `COc1ccc(/C=C/C(=O)NCc2cn(Cc3ccc(I)cc3)nn2)cc1` [Compound 10, N-((1-(4-iodobenzyl)-1H-1,2,3-triazol-4-yl)methyl) (4-methoxy) cinnamide] registered a melting point of 200.6 to 202 °C. Besides, the IC50 in data set [1] was over 600 mg/L. The compound further gave an IC50 in data set [2] of over 600 mg/L.

For the compound `COc1ccc(/C=C/C(=O)NCc2cn(Cc3ccc([N+](=O)[O-])cc3)nn2)cc1` [Compound 11, N-((1-(4-nitrobenzyl)-1H-1,2,3-triazol-4-yl)methyl) (4-methoxy) cinnamide], the melting point fell in the range of 192.2 to 193.4 °C. The IC50 in data set [1] is over 600 mg/L. In data set [2], the IC50 was over 600 mg/L.

With `COc1ccc(/C=C/C(=O)NCc2cn(Cc3ccc(OC)cc3)nn2)cc1` [Compound 12, N-((1-(4-methoxybenzyl)-1H-1,2,3-triazol-4-yl)methyl) (4-methoxy) cinnamide], the melting point is 169 to 170.2 °C. In data set [1], this compound gave an IC50 of over 600 mg/L. In data set [2], this compound yielded a 50% inhibitory concentration (IC50) of over 600 mg/L.

The compound `COc1ccc(/C=C/C(=O)NCc2cn(Cc3ccc(OC(F)(F)F)cc3)nn2)cc1` [Compound 13, N-((1-(4-(trifluoromethoxy)benzyl)-1H-1,2,3-triazol-4-yl)methyl) (4-methoxy) cinnamide] showed a melting point of 191.4 to 193 °C. This compound yielded an IC50 in data set [1] of over 600 mg/L. In addition, the IC50 in data set [2] is over 600 mg/L.

As for `COc1ccc(/C=C/C(=O)NCc2cn(Cc3ccc(C(F)(F)F)cc3)nn2)cc1` [Compound 14, N-((1-(4-(trifluoromethyl)benzyl)-1H-1,2,3-triazol-4-yl)methyl) (4-methoxy) cinnamide], the melting point is 220.5 to 221.9 °C. This compound gave an IC50 in data set [1] of over 600 mg/L. This compound also gave an IC50 in data set [2] of over 600 mg/L.

In turn, `COc1ccc(/C=C/C(=O)NCc2cn(Cc3ccc(F)c(F)c3)nn2)cc1` [Compound 15, N-((1-(3,4-difluorobenzyl)-1H-1,2,3-triazol-4-yl)methyl) (4-methoxy) cinnamide] came in with a melting point of 166.3 to 167.7 °C. In data set [1], the IC50 was over 600 mg/L. For the same compound, the half-maximal inhibitory concentration (IC50) in data set [2] was over 600 mg/L.

In turn, `COc1ccc(/C=C/C(=O)NCc2cn(Cc3ccc(C)cc3)nn2)cc1OC` [Compound 16, N-((1-(4-methylbenzyl)-1H-1,2,3-triazol-4-yl)methyl) (3,4-dimethoxy) cinnamide] came in with a melting point of 191.6 to 192.2 °C. For the same compound, the IC50 in data set [1] was over 600 mg/L. In data set [2], this compound returned an IC50 of over 600 mg/L.

Compound `COc1ccc(/C=C/C(=O)NCc2cn(Cc3ccc(C(C)C)cc3)nn2)cc1OC` [Compound 17, N-((1-(4-isopropylbenzyl)-1H-1,2,3-triazol-4-yl)methyl) (3,4-dimethoxy) cinnamide] yielded a melting point of 175.5 to 176.4 °C. Moreover, the IC50 in data set [1] was over 600 mg/L. The same compound yielded an IC50 in data set [2] of over 600 mg/L.

On to `COc1ccc(/C=C/C(=O)NCc2cn(Cc3ccc(F)cc3)nn2)cc1OC` [Compound 18, N-((1-(4-fluorobenzyl)-1H-1,2,3-triazol-4-yl)methyl) (3,4-dimethoxy) cinnamide], for which the melting point lay within 174.8 to 175.5 °C. This compound also displayed an IC50 in data set [1] of over 600 mg/L. In addition, the IC50 in data set [2] is over 600 mg/L.

The compound `COc1ccc(/C=C/C(=O)NCc2cn(Cc3ccc(Cl)cc3)nn2)cc1OC` [Compound 19, N-((1-(4-chlorobenzyl)-1H-1,2,3-triazol-4-yl)methyl) (3,4-dimethoxy) cinnamide] registered a melting point of 189.6 to 190.8 °C. This compound also had an IC50 in data set [1] of over 600 mg/L. The IC50 in data set [2] was over 600 mg/L.

Consider `COc1ccc(/C=C/C(=O)NCc2cn(Cc3ccc(Br)cc3)nn2)cc1OC` [Compound 20, N-((1-(4-bromobenzyl)-1H-1,2,3-triazol-4-yl)methyl) (3,4-dimethoxy) cinnamide], for which the melting point was 198.2 to 199.6 °C. In addition, in data set [1], the IC50 is over 600 mg/L. Besides, the IC50 in data set [2] was over 600 mg/L.

With `COc1ccc(/C=C/C(=O)NCc2cn(Cc3ccc(I)cc3)nn2)cc1OC` [Compound 21, N-((1-(4-iodobenzyl)-1H-1,2,3-triazol-4-yl)methyl) (3,4-dimethoxy) cinnamide], the melting point fell in the range of 194 to 194.9 °C. This compound yielded an IC50 in data set [1] of over 600 mg/L. This compound displayed an IC50 in data set [2] of over 600 mg/L.

`COc1ccc(/C=C/C(=O)NCc2cn(Cc3ccc([N+](=O)[O-])cc3)nn2)cc1OC` [Compound 22, N-((1-(4-nitrobenzyl)-1H-1,2,3-triazol-4-yl)methyl) (3,4-dimethoxy) cinnamide]: the melting point fell in the range of 217.6 to 218.9 °C. In addition, the IC50 in data set [1] was over 600 mg/L. For the same compound, the IC50 in data set [2] is over 600 mg/L.

For `COc1ccc(Cn2cc(CNC(=O)/C=C/c3ccc(OC)c(OC)c3)nn2)cc1` [Compound 23, N-((1-(4-methoxybenzyl)-1H-1,2,3-triazol-4-yl)methyl) (3,4-dimethoxy) cinnamide], the melting point lay in the range of 171.2 to 172 °C. The same compound had an IC50 in data set [1] of over 600 mg/L. The compound further registered an IC50 in data set [2] of over 600 mg/L.

In turn, `COc1ccc(/C=C/C(=O)NCc2cn(Cc3ccc(OC(F)(F)F)cc3)nn2)cc1OC` [Compound 24, N-((1-(4-(trifluoromethoxy)benzyl)-1H-1,2,3-triazol-4-yl)methyl) (3,4-dimethoxy) cinnamide] displayed a melting point of 177.4 to 178.6 °C. In addition, the IC50 in data set [1] was over 600 mg/L. In data set [2], the IC50 was over 600 mg/L.

Take `COc1ccc(/C=C/C(=O)NCc2cn(Cc3ccc(C(F)(F)F)cc3)nn2)cc1OC` [Compound 25, N-((1-(4-(trifluoromethyl)benzyl)-1H-1,2,3-triazol-4-yl)methyl) (3,4-dimethoxy) cinnamide]: the melting point fell in the range of 196.4 to 197.6 °C. Also, the IC50 in data set [1] was over 600 mg/L. In data set [2], the IC50 was over 600 mg/L.

The compound `COc1ccc(/C=C/C(=O)NCc2cn(Cc3ccc(F)c(F)c3)nn2)cc1OC` [Compound 26, N-((1-(3,4-difluorobenzyl)-1H-1,2,3-triazol-4-yl)methyl) (3,4-dimethoxy) cinnamide] registered a melting point of 166 to 167.2 °C. In data set [1], this compound returned an IC50 of over 600 mg/L. Moreover, the IC50 in data set [2] was over 600 mg/L.

`CCN(CC)c1ccc2cc(-n3cc(CNC(=O)/C=C/c4ccc(OC)cc4)nn3)c(=O)oc2c1` [Compound 27, N-((1-(7-(diethylamino)-2-oxo-2H-chromen-3-yl)-1H-1,2,3-triazol-4-yl)methyl) (4-methoxy) cinnamide] returned a melting point of 191.3 to 192.7 °C. Further, the IC50 in data set [1] is over 600 mg/L. This compound yielded an IC50 in data set [2] of over 600 mg/L.

Values taken from paper PMC10459042, “Synthesis of 1,2,3-Triazole-Containing Methoxylated Cinnamides and Their Antileishmanial Activity against the Leishmania braziliensis Species” (Pharmaceuticals, 2023).
